# Where two headings read alike, the source gives them in different places. Where no end group is shown, it is not given here. [ ]: non-standard residue; d: D form. pY = N[C@@H](Cc1ccc(OP(=O)(O)O)cc1)C(=O)O
# Columns and labels:
# [1] = tested on: G6B-b tyrosine phosphorylation; experiment: G6B-b tyrosine phosphorylation in washed human platelets (4G10 staining); assay type: cell-based; conditions: for G6B-b tyrosine phosphorylation: 1 µg/ml CRP, 5 minutes, 4G10 staining, n = 4; for state of G6B-b phosphorylation: PP2 5 µM, PP3 5 µM or pervanadate, 10 minutes
# Description: One microgram of antibody was bound to 10 µl of Protein A-sepharose (20 µl of a 50% slurry), in a final volume of 100 µl PBS, by incubation on a rotating wheel for 90 minutes at 4°C. Washed human platelets were incubated with either Tyrodes, 5 µM PP2, 5 µM PP3 or pervanadate for 10 minutes, after which they were pelleted and lysed in DP lysis buffer (20 mM Tris pH 7.5, 150 mM NaCl, 5 mM NaOV4, 1× Complete Protease Inhibitor (Roche) and 5% w/v n-Dodecyl-β-D-maltoside (Calbiochem)) such that each IP sample received 4×10^8 platelets in a final volume of 100 µl DP lysis buffer. Samples were mixed on a rotating wheel at 4°C for 1 hour. Samples were washed once in 200 µl DP lysis buffer and twice in 1 ml PBS prior to boiling in Laemmli buffer for 5 minutes.
# We wanted to determine whether SHP-2 could associate with the receptor in human platelets as this interaction could relate to receptor function and regulation of GPVI signalling. […] In the absence of receptor agonists, we carried out co-immunoprecipitation experiments in platelet lysates treated with the SFK inhibitor, PP2, its non-active analogue, PP3, or the tyrosine phosphatase inhibitor, pervanadate. […] Under these conditions, isolation of […] by immunoprecipitation was robust (Figure 1B, top panel).
# (A) Washed human platelets were incubated under stirring, but non-aggregating, conditions with the SFK inhibitor, PP2, or DMSO, prior to the addition of 1 µg/ml CRP or Tyrodes buffer. Samples were collected after 5 minutes. Tyrosine phosphorylation was detected by 4G10 staining (top panel, n = 4). […] (B) G6B-b co-immunoprecipitates with […] in pervanadate-treated washed human platelets.
# [2] = biological target: T1, N-terminal SH2 domain of SHP-2 (Homo sapiens, UniProt Q06124); experiment: SPR (BIAcore 3000), single N-terminal SH2 domain of SHP-2; assay type: binding; conditions: HBS pH 7.4, 37°C, 10 µl/min
# T1 construct: SHP-2 (N)SH2 (His-tag) (OMC #3912); His-tag; host or cells: E. coli BL21(DE3)
# T1 sequence (Q06124 6-102 limits assumed): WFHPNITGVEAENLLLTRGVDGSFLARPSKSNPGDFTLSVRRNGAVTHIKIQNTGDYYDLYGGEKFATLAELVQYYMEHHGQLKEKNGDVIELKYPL
# Description: (§1) These proteins were expressed in BL21(DE3) cells (Invitrogen) induced with 1 mM IPTG for 4 hours at 37°C. Bacteria were pelleted and washed in PBS/0.5 M NaCl prior to sonication in PBS/0.5 M NaCl, in the presence of protease inhibitor cocktail (Complete, EDTA-free, Roche). Soluble and insoluble fractions were separated by centrifugation at 30,000 g for 60 minutes. Soluble fractions containing tagged proteins were incubated for 1 hour at 4°C with end-over-end mixing in the presence of washed Ni-Sepharose (GE Lifesceinces, Little Chalfont, U.K.) supplemented with 40 mM imidazole or Amylose resin (NEB, Herts, U.K). Proteins were eluted according to the manufacturer's instructions and purified by size exclusion chromatography on an AKTApurifier (GE Lifesciences, Little Chalfont, U.K).
# Experiments were conducted on a BIAcore™ 3000 in HBS buffer (0.01 M HEPES, pH 7.4, containing 0.15 M NaCl, 3 mM EDTA, and 0.005% v/v P-20, GE Life Sciences, Amersham, UK). Streptavidin was coupled to a research grade CM5 chip (GE Life Sciences, Amersham, UK) as previously described, [13]. Protein-peptide interactions were carried out a rate of 10 µl/min at a constant temperature of 37°C to more accurately reflect physiological conditions. Biotinylated peptides were bound to the streptavidin-coated CM5 chips at 37°C to between 25–50 RU [14]. Purified monomeric SH2 domains were passed over the immobilised peptides at a range of concentrations. Anti-phosphotyrosine monoclonal antibody (Sigma, Poole, U.K.) was passed over the chip to saturation at the end of each experiment to verify peptide coverage on the chip. Binding affinities for the single ITIM/ITSM peptides were determined by plotting equilibrium binding measurements (RU) against SH2 domain protein concentration (Origin 8, OriginLab, MA, USA). KD was defined as the concentration of SH2 protein that gave half maximal binding to the peptide. […] KD was determined as Koff/Kon, which were determined using both GraphPad Prism 5.0 (GraphPad, La Jolla, CA, USA) and BIAevaluation Software (GE Life Sciences, Amersham,UK).
# endogenous G6B-b = experiment: Pull down of endogenous G6B-b from platelet lysate with purified SH2 domains; assay type: binding; conditions: washed human platelet lysates activated with CRP or thrombin
# Description: as §1, with “Proteins were eluted according to the manufacturer's instructions and purified by size exclusion chromatography on an AKTApurifier (GE Lifesciences, Little Chalfont, U.K).” left out
# Based on this study, the N-terminal SH2 domains of both SHP-1 and SHP-2 should preferentially bind to the ITIM (central pY at position 211) while the C-terminal domains should associate with the ITSM (pY at position 237). […] The N-terminal SH2 domain of SHP-1 was insoluble and it was not possible to purify sufficient quantities for binding studies. […]
# (A) Peptide associated material was isolated from pre-cleared lysates separated on 4–12% NuPage Bis-Tris gels; proteins identified by Western Blotting (representative blots, n = 3). […] Bound material was separated from unbound material by SDS-PAGE and quantified (n = 3, SEM, ** denotes p<0.01, * denotes p<0.05). […]
# [3] = tested on: G6B-b dual phosphopeptide; experiment: SPR (BIAcore 3000) of SHP-1/SHP-2 tandem SH2 domains over immobilised G6B-b phosphopeptide; assay type: binding, human; conditions: for Koff / Kd: HBS pH 7.4, 37°C, 50 µl/min; for Koff: Prism 5; for Kd: KD = Koff/Kon
# Description: Experiments were conducted on a BIAcore™ 3000 in HBS buffer (0.01 M HEPES, pH 7.4, containing 0.15 M NaCl, 3 mM EDTA, and 0.005% v/v P-20, GE Life Sciences, Amersham, UK). Streptavidin was coupled to a research grade CM5 chip (GE Life Sciences, Amersham, UK) as previously described, [13]. Protein-peptide interactions were carried out a rate of 10 µl/min at a constant temperature of 37°C to more accurately reflect physiological conditions. Biotinylated peptides were bound to the streptavidin-coated CM5 chips at 37°C to between 25–50 RU [14]. Purified monomeric SH2 domains were passed over the immobilised peptides at a range of concentrations. Anti-phosphotyrosine monoclonal antibody (Sigma, Poole, U.K.) was passed over the chip to saturation at the end of each experiment to verify peptide coverage on the chip. Binding affinities for the single ITIM/ITSM peptides were determined by plotting equilibrium binding measurements (RU) against SH2 domain protein concentration (Origin 8, OriginLab, MA, USA). KD was defined as the concentration of SH2 protein that gave half maximal binding to the peptide. For the 60-mer peptides, SH2 domains were passed over the chip surface at 50 µl/min. KD was determined as Koff/Kon, which were determined using both GraphPad Prism 5.0 (GraphPad, La Jolla, CA, USA) and BIAevaluation Software (GE Life Sciences, Amersham,UK).
# Previous studies have shown that using single phosphomotifs (isolated from sequences in which they may exist in tandem) and single SH2 domains can be misleading, [16]. We, therefore, assessed phosphatase-G6B-b interactions in more detail using the tandem SH2 domains of both SHP-2 (Figure 4A) and SHP-1 (Figure 4B). We kinetically determined the binding affinity (KD = koff/kon) by SPR at physiological temperatures.
# [4] = tested on: washed human platelets (collagen); experiment: Light transmission aggregometry of TAT-peptide-loaded platelets, collagen; assay type: cell-based; conditions: vehicle (DMSO) control; light transmission aggregometry
# Description: (§2) Whole blood was taken from healthy volunteers and collected into 50 ml syringes containing 5 ml acid citrate-dextrose (ACD) in accordance with procedures approved by the Local Research Ethics Committee (Ref: 07/Q1603/17). Platelet-rich plasma (PRP) was isolated by centrifugation at 200 g for 10 minutes at room temperature. PRP was pooled and 10 µg PGI2 was added before centrifugation at 1000 g for 10 minutes at room temperature. Platelets were resuspended in 1 ml Tyrodes buffer (134 mM NaCl, 0.34 mM Na2HPO4, 2.9 mM KCl, 12 mM NaHCO3, 20 mM HEPES, 5 mM glucose, 1 mM MgCl2, pH 7.3) pre-warmed to 30°C and 150 µl ACD. The volume was adjusted to 25 ml with Tyrodes buffer, followed by 3 ml ACD and 1.25 µg PGI2. Cells were centrifuged at 1000 g for 10 minutes at room temperature and the resultant cell pellet was resuspended in 1 ml pre-warmed Tyrodes buffer before adjusting the volume to a final cell density of 4×10^8 cells/ml (aggregations) or 2×10^9 cells/ml (peptide pull downs). Where appropriate, 1 mM EGTA, 10 µM indomethacin and 2 U/ml apyrase were added to inhibit aggregations (referred to as non-aggregating conditions).
# (§3) Fluorescein-labelled, TAT-G6B-b peptides were synthesised by Peptide Protein Research Ltd (Hampshire, U.K.). Peptides were either unphosphorylated, or phosphorylated at both ITIMs as follows: Dual phosphorylated peptide – FLUO- […]*[…]*AVVV or unphosphorylated control peptide (lacking tyrosine phosphorylation) - FLUO- […]. TAT sequences are underlined and phosphorylated tyrosines marked with an asterisk. Peptides were loaded into washed platelets by incubation with 10 µM peptide for 15 minutes at 30°C, after which they were assessed by light transmission aggregometry. Peptide loading conditions were optimised and verified by flow cytometry.
# (§4) Washed human platelets were loaded with TAT-G6B-b peptides (either dual phosphorylated or unphosphorylated) and changes in CRP efficacy determined by light transmission aggregometry. […] Thrombin-mediated activation was unaffected (data not shown). […] Peptide loading was verified by flow cytometry (Figure 9C and 9D.
# [5] = tested on: washed human platelets (CRP); experiment: Light transmission aggregometry of TAT-peptide-loaded platelets, CRP; assay type: cell-based; conditions: vehicle (DMSO) control; light transmission aggregometry
# Description: as §2, §3, §4
compound,measurement,setting,value
CC(C)(C)n1nc(-c2ccc(Cl)cc2)c2c(N)ncnc21 [PP2],G6B-b tyrosine phosphorylation,[1],reduced the G6B-b tyrosine phosphorylation in response to CRP
same,state of G6B-b phosphorylation,[1],non-phosphorylation
Nc1ncnc2c1cnn2-c1ccccc1 [PP3],G6B-b tyrosine phosphorylation,[1],no effect on tyrosine phosphorylation
same,state of G6B-b phosphorylation,[1],partial/sub-maximal
PLVKTEPQRPVKEEEPKIPGDLDQEPSLLYADLDHLALSRPRRLSTADPADASTI[pY]AVVV [pY237],Kd,"[2]; read-out: KD, estimated by fixing maximum binding",10000 nM
PLVKTEPQRPVKEEEPKIPGDLDQEPSLL[pY]ADLDHLALSRPRRLSTADPADASTIYAVVV [pY211],Kd,"[2]; equilibrium binding, single site fitting, read-out: KD",110 nM
"SHP-1: SHP-1 (N+C)SH2 domains, recombinant",isolation of endogenous G6B-b,endogenous G6B-b,able to isolate endogenous G6B-b from platelet lysate
same,Koff,[3]; tandem SH2 domains 0.1 nM,0.0104 s⁻¹
same,Kd,[3]; tandem SH2 domains 0.1 nM,43.3 nM
same,Koff,[3]; tandem SH2 domains 1 nM,0.01106 s⁻¹
same,Kd,[3]; tandem SH2 domains 1 nM,42.5 nM
same,Koff,[3]; tandem SH2 domains 10 nM,0.01141 s⁻¹
same,Kd,[3]; tandem SH2 domains 10 nM,20.3 nM
same,Koff,[3]; tandem SH2 domains 100 nM,0.01025 s⁻¹
same,Kd,[3]; tandem SH2 domains 100 nM,32 nM
same,Koff,[3]; tandem SH2 domains 1000 nM,0.00892 s⁻¹
"SHP-2: SHP-2 (N+C)SH2 domains, recombinant",isolation of endogenous G6B-b,endogenous G6B-b,able to isolate G6B-b from platelet lysate
same,fold higher binding affinity of SHP-2 tandem SH2 domains than single N(SH2) domain,"[3]; SPR, dual phosphopeptide",approximately 200 fold
same,Koff,[3]; tandem SH2 domains 0.1 nM,0.0720 s⁻¹
same,Kd,[3]; tandem SH2 domains 0.1 nM,0.474 nM
same,Koff,[3]; tandem SH2 domains 1 nM,0.1660 s⁻¹
same,Kd,[3]; tandem SH2 domains 1 nM,0.624 nM
same,Koff,[3]; tandem SH2 domains 10 nM,0.0206 s⁻¹
same,Kd,[3]; tandem SH2 domains 10 nM,0.145 nM
same,Koff,[3]; tandem SH2 domains 100 nM,0.0144 s⁻¹
same,Kd,[3]; tandem SH2 domains 100 nM,0.528 nM
same,Koff,[3]; tandem SH2 domains 1000 nM,0.0106 s⁻¹
same,Kd,[3]; tandem SH2 domains 1000 nM,0.634 nM
collagen [reference compound],"EC50 of collagen, vehicle control platelets",[4],0.4 µg/mL
"collagen-related peptide [CRP, reference compound]","EC50 of CRP, vehicle control platelets",[5],0.4 µg/mL
pervanadate,state of G6B-b phosphorylation,[1],maximal phosphorylation

# Source: publication PMC3501490 (PLoS ONE, 2012)
